37 molecules from patent US11180483B2, “Substituted reverse pyrimidine Bmi-1 inhibitors” (PTC Therapeutics, Inc., priority 2012, dated 2021) can be followed below.

The subject of the assay is Bmi-1. In words: Sandwich ELISA Assay (Bmi-1 ELISA) in HT-1080 cells. The class given is cell-based. In short, it runs like this:
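Bmi-1 in lysates was measured by a three-antibody ELISA with TMB, OD450 minus OD570 reference, interpolated on a GST-tagged recombinant Bmi-1 standard curve, 0-8000 pg/mL. Lysates came from HT-1080 cells treated 40-48 h with compound, final DMSO 0.5%.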
The EC50 is the concentration needed to bring the measured effect to its halfway point. A high value points to weaker potency. `CCc1nc2ccc(F)cc2n1-c1nc(N)c(F)c(Nc2ccc(OC(F)F)cc2)n1` [Cpd 165, N-[4-(difluoromethoxy)phenyl]-2-(2-ethyl-6-fluoro-1H-benzimidazol-1-yl)-5-fluoropyrimidine-4,6-diamine]: the EC50 was 1 to 10 nM.

As for `Cc1nc2ccccc2n1-c1nc(N)c(Cl)c(Nc2ccc(C(F)(F)F)cc2)n1` [Cpd 166, 5-chloro-2-(2-methyl-1H-benzimidazol-1-yl)-N-[4-(trifluoromethyl)phenyl]pyrimidine-4,6-diamine], the EC50 was in the range of 100 to 3000 nM.

`CCc1nc2ccccc2n1-c1nc(N)c(Cl)c(Nc2ccc(C(F)(F)F)cc2)n1` [Cpd 167, 5-chloro-2-(2-ethyl-1H-benzimidazol-1-yl)-N-[4-(trifluoromethyl)phenyl]pyrimidine-4,6-diamine] registered an EC50 of 10 to 100 nM.

For `CCc1nc2ccccc2n1-c1nc(N)c(Cl)c(Nc2ccc(OC(F)F)cc2)n1` [Cpd 168, 5-chloro-N-[4-(difluoromethoxy)phenyl]-2-(2-ethyl-1H-benzimidazol-1-yl)pyrimidine-4,6-diamine], the EC50 was in the range of 100 to 3000 nM.

In the case of `Cc1nc2ccccn2c1-c1nc(N)c(F)c(Nc2ccc(C(F)(F)F)cc2)n1` [Cpd 169, 5-fluoro-2-(2-methylimidazo[1,2-a]pyridin-3-yl)-N-[4-(trifluoromethyl)phenyl]pyrimidine-4,6-diamine], the EC50 fell in the range of 100 to 3000 nM.

As to `Cc1nc2ccccn2c1-c1nc(N)c(F)c(Nc2ccc(OC(F)F)cc2)n1` [Cpd 170, N-[4-(difluoromethoxy)phenyl]-5-fluoro-2-(2-methylimidazo[1,2-a]pyridin-3-yl)pyrimidine-4,6-diamine], the EC50 is 100 to 3000 nM.

`Cc1nc2ccccn2c1-c1nc(N)c(F)c(Nc2ccc(OC(F)F)c(F)c2)n1` [Cpd 171, N-[4-(difluoromethoxy)-3-fluorophenyl]-5-fluoro-2-(2-methylimidazo[1,2-a]pyridin-3-yl)pyrimidine-4,6-diamine] showed an EC50 of 100 to 3000 nM.

Molecule `Cc1c(N)nc(-n2c(C)nc3ccccc32)nc1Nc1ccc(C(F)(F)F)cc1` [Cpd 172, 5-methyl-2-(2-methyl-1H-benzimidazol-1-yl)-N-[4-(trifluoromethyl)phenyl]pyrimidine-4,6-diamine] registered an EC50 of 100 to 3000 nM.

`Cc1nn2ccccc2c1-c1nc(N)c(F)c(Nc2ccc(OC(F)F)cc2)n1` [Cpd 173, N-[4-(difluoromethoxy)phenyl]-5-fluoro-2-(2-methylpyrazolo[1,5-a]pyridin-3-yl)pyrimidine-4,6-diamine]: the EC50 was in the range of 100 to 3000 nM.

Regarding `Cc1nn2ccccc2c1-c1nc(N)c(F)c(Nc2ccc(C(F)(F)F)cc2)n1` [Cpd 177, 5-fluoro-2-(2-methylpyrazolo[1,5-a]pyridin-3-yl)-N-[4-(trifluoromethyl)phenyl]pyrimidine-4,6-diamine], the EC50 was 100 to 3000 nM.

As for `Nc1nc(-c2c(C(F)(F)F)nc3ccc(F)cn23)nc(Nc2ccc(C(F)(F)F)cc2)c1F` [Cpd 178, 5-fluoro-2-[6-fluoro-2-(trifluoromethyl)imidazo[1,2-a]pyridin-3-yl]-N-[4-(trifluoromethyl)phenyl]pyrimidine-4,6-diamine], the EC50 was in the range of 100 to 3000 nM.

On to `COc1ccc(Nc2nc(-n3c(C)nc4ccc(F)cc43)nc(N)c2F)cc1` [Cpd 179, 5-fluoro-2-(6-fluoro-2-methyl-1H-benzimidazol-1-yl)-N-(4-methoxyphenyl)pyrimidine-4,6-diamine], for which the EC50 was 1 to 10 nM.

On to `Nc1nc(-c2c(C3CC3)nn3ccccc23)nc(Nc2ccc(OC(F)F)cc2)c1F` [Cpd 180, 2-(2-cyclopropylpyrazolo[1,5-a]pyridin-3-yl)-N-[4-(difluoromethoxy)phenyl]-5-fluoropyrimidine-4,6-diamine], for which the EC50 was 100 to 3000 nM.

The molecule `Nc1nc(-c2c(CO)nn3ccc(F)cc23)nc(Nc2ccc(OC(F)F)cc2)c1F` [Cpd 181, [3-(4-amino-6-{[4-(difluoromethoxy)phenyl]amino}-5-fluoropyrimidin-2-yl)-5-fluoropyrazolo[1,5-a]pyridin-2-yl]methanol] gave an EC50 of 10 to 100 nM.

As for `CSc1nc2ccccc2n1-c1nc(N)cc(Nc2ccc(C(F)(F)F)cc2)n1` [Cpd 182, 2-[2-(methylsulfanyl)-1H-benzimidazol-1-yl]-N-[4-(trifluoromethyl)phenyl]pyrimidine-4,6-diamine], the EC50 was in the range of 100 to 3000 nM.

As to `Cc1nc2ccc(F)cc2n1-c1nc(N)c(F)c(Nc2ccc(C(F)(F)F)nc2)n1` [Cpd 183, 5-fluoro-2-(6-fluoro-2-methyl-1H-benzimidazol-1-yl)-N-[6-(trifluoromethyl)pyridin-3-yl]pyrimidine-4,6-diamine], the EC50 lay within 10 to 100 nM.

As for `Cc1ccc(Nc2nc(-n3c(C)nc4ccc(F)cc43)nc(N)c2F)cc1` [Cpd 184, 5-fluoro-2-(6-fluoro-2-methyl-1H-benzimidazol-1-yl)-N-(4-methylphenyl)pyrimidine-4,6-diamine], the EC50 lay in the range of 1 to 10 nM.

`Cc1nc2ccc(F)cc2n1-c1nc(N)c(F)c(Nc2ccc(Cl)cc2)n1` [Cpd 185, N-(4-chlorophenyl)-5-fluoro-2-(6-fluoro-2-methyl-1H-benzimidazol-1-yl)pyrimidine-4,6-diamine] yielded an EC50 of 10 to 100 nM.

With `COc1cccc(Nc2nc(-n3c(C)nc4ccc(F)cc43)nc(N)c2F)c1` [Cpd 189, 5-fluoro-2-(6-fluoro-2-methyl-1H-benzimidazol-1-yl)-N-(3-methoxyphenyl)pyrimidine-4,6-diamine], the EC50 lay in the range of 100 to 3000 nM.

In turn, `Cc1nc2ccc(F)cc2n1-c1nc(N)c(F)c(Nc2cccc(Cl)c2)n1` [Cpd 190, N-(3-chlorophenyl)-5-fluoro-2-(6-fluoro-2-methyl-1H-benzimidazol-1-yl)pyrimidine-4,6-diamine] showed an EC50 of 100 to 3000 nM.

As to `Cc1nc2ccc(F)cc2n1-c1nc(N)c(F)c(Nc2ccc(OC(F)(F)F)cc2)n1` [Cpd 191, 5-fluoro-2-(6-fluoro-2-methyl-1H-benzimidazol-1-yl)-N-[4-(trifluoromethoxy)phenyl]pyrimidine-4,6-diamine], the EC50 is 10 to 100 nM.

`Cc1nc2ccc(F)cc2n1-c1nc(N)c(F)c(Nc2ccc(C#N)cc2)n1` [Cpd 192, 4-{[6-amino-5-fluoro-2-(6-fluoro-2-methyl-1H-benzimidazol-1-yl)pyrimidin-4-yl]amino}benzonitrile] returned a half-maximal effective concentration (EC50) of 100 to 3000 nM.

For the molecule `COC(=O)c1ccc(Nc2nc(-n3c(C)nc4ccc(F)cc43)nc(N)c2F)cc1` [Cpd 193, methyl 4-{[6-amino-5-fluoro-2-(6-fluoro-2-methyl-1H-benzimidazol-1-yl)pyrimidin-4-yl]amino}benzoate], the EC50 was 10 to 100 nM.

`Cc1cccc(Nc2nc(-n3c(C)nc4ccccc43)nc(N)c2F)c1` [Cpd 194, 5-fluoro-2-(2-methyl-1H-benzimidazol-1-yl)-N-(3-methylphenyl)pyrimidine-4,6-diamine] displayed an EC50 of 100 to 3000 nM.

For the molecule `COc1cccc(Nc2nc(-n3c(C)nc4ccccc43)nc(N)c2F)c1` [Cpd 195, 5-fluoro-N-(3-methoxyphenyl)-2-(2-methyl-1H-benzimidazol-1-yl)pyrimidine-4,6-diamine], the EC50 was 100 to 3000 nM.

As to `Cc1ccc(Nc2cc(N)nc(-n3c(C)nc4ccccc43)n2)cc1` [Cpd 196, 2-(2-methyl-1H-benzimidazol-1-yl)-N-(4-methylphenyl)pyrimidine-4,6-diamine], the EC50 lay within 1 to 10 nM.

Turning to `COc1ccc(Nc2cc(N)nc(-n3c(C)nc4ccccc43)n2)cc1` [Cpd 197, N-(4-methoxyphenyl)-2-(2-methyl-1H-benzimidazol-1-yl)pyrimidine-4,6-diamine], the EC50 is 1 to 10 nM.

As for `Cc1nc2ccccc2n1-c1nc(N)cc(Nc2ccc(N(C)C)cc2)n1` [Cpd 198, N-[4-(dimethylamino)phenyl]-2-(2-methyl-1H-benzimidazol-1-yl)pyrimidine-4,6-diamine], the EC50 was 1 to 10 nM.

In turn, `Cc1ccc(Nc2nc(-n3c(C)nc4ccccc43)nc(N)c2F)cc1` [Cpd 199, 5-fluoro-2-(2-methyl-1H-benzimidazol-1-yl)-N-(4-methylphenyl)pyrimidine-4,6-diamine] showed an EC50 of 1 to 10 nM.

`COc1ccc(Nc2nc(-n3c(C)nc4ccccc43)nc(N)c2F)cc1` [Cpd 200, 5-fluoro-N-(4-methoxyphenyl)-2-(2-methyl-1H-benzimidazol-1-yl)pyrimidine-4,6-diamine]: the half-maximal effective concentration (EC50) fell in the range of 1 to 10 nM.

For the molecule `Cc1nc2ccccc2n1-c1nc(N)c(F)c(Nc2ccc(Cl)cc2)n1` [Cpd 201, N-(4-chlorophenyl)-5-fluoro-2-(2-methyl-1H-benzimidazol-1-yl)pyrimidine-4,6-diamine], the EC50 was 10 to 100 nM.

`Cc1nc2ccccc2n1-c1nc(N)c(F)c(Nc2ccc(C#N)cc2)n1` [Cpd 202, 4-{[6-amino-5-fluoro-2-(2-methyl-1H-benzimidazol-1-yl)pyrimidin-4-yl]amino}benzonitrile] registered an EC50 of 100 to 3000 nM.

For the molecule `Cc1nc2ccccc2n1-c1nc(N)c(F)c(Nc2ccc3c(c2)OCO3)n1` [Cpd 203, N-(1,3-benzodioxol-5-yl)-5-fluoro-2-(2-methyl-1H-benzimidazol-1-yl)pyrimidine-4,6-diamine], the EC50 was 1 to 10 nM.

On to `Cc1nc2ccccc2n1-c1nc(N)c(F)c(Nc2ccc(OC(F)(F)F)cc2)n1` [Cpd 204, 5-fluoro-2-(2-methyl-1H-benzimidazol-1-yl)-N-[4-(trifluoromethoxy)phenyl]pyrimidine-4,6-diamine], for which the EC50 is 10 to 100 nM.

With `Cc1nc2ccccc2n1-c1nc(N)cc(Nc2ccc(Cl)cc2)n1` [Cpd 209, N-(4-chlorophenyl)-2-(2-methyl-1H-benzimidazol-1-yl)pyrimidine-4,6-diamine], the EC50 lay in the range of 10 to 100 nM.

The molecule `Cc1nc2ccccc2n1-c1nc(N)cc(Nc2ccc(C#N)cc2)n1` [Cpd 210, 4-{[6-amino-2-(2-methyl-1H-benzimidazol-1-yl)pyrimidin-4-yl]amino}benzonitrile] had an EC50 of 100 to 3000 nM.

The molecule `Cc1nc2ccccc2n1-c1nc(N)cc(Nc2ccc([N+](=O)[O-])cc2)n1` [Cpd 211, 2-(2-methyl-1H-benzimidazol-1-yl)-N-(4-nitrophenyl)pyrimidine-4,6-diamine] displayed an EC50 of 100 to 3000 nM.
